Data published in publication PMC6842059 (ChemMedChem, 2019).

Experiments:
in vitro = settings: human

| SMILES | CC50 (in vitro) [µM] | selectivity index (CC50/IC50) (MT-2 cells) |
| --- | --- | --- |
| CC(C)CN(C[C@@H](O)[C@H](Cc1ccccc1)NC(=O)O[C@H]1CO[C@H]2OCC[C@H]21)S(=O)(=O)c1ccc(B(O)O)cc1 [Inhibitor 5, (4-(N-((2R,3S)-3-(((((3R,3aS,6aR)-hexahydrofuro[2,3-b]furan-3-yl)oxy)carbonyl)amino)-2-hydroxy-4-phenylbutyl)-N-isobutylsulfamoyl)phenyl)boronic acid] | > 100 | > 2,040 |
| CC(C)CN(C[C@@H](O)[C@H](Cc1ccccc1)NC(=O)O[C@H]1C2CO[C@H]3OC[C@@H]1C3C2)S(=O)(=O)c1ccc(B(O)O)cc1 (stereo partly drawn) [Inhibitor 6, (4-(N-((2R,3S)-3-(((((3S,7aS,8S)-Hexahydro-4H-3,5-methanofuro[2,3-b]pyran-8-yl)oxy)carbonyl)amino)-2-hydroxy-4-phenylbutyl)-N-isobutylsulfamoyl)phenyl)boronic acid] | > 100 | > 2,650 |
